Results published in the NIST ThermoML archive (doi:10.1016/j.jct.2011.01.016).

Key:
[1] = xn = mol fraction of the nth substance listed; settings: 100 kPa, Liquid; for viscosity: Concentric cylinders viscometry; for mass density: Vibrating tube method
[2] = 101.33 kPa, Liquid; for viscosity: Concentric cylinders viscometry; for mass density: Vibrating tube method

CC(CC(C)(C)C)CP(=O)([O-])CC(C)CC(C)(C)C.CCCCCCCCCCCCCC[P+](CCCCCC)(CCCCCC)CCCCCC + O
[1], x2 = 0.876
Settings	mass density [kg/m3]	viscosity [mPa·s]
298.15 K	907.3	173.82
303.15 K	903.9	128.58
308.15 K	900.5	97.03
313.15 K	897.2	74.52
318.15 K	893.8	58.16
323.15 K	890.4	46.06
328.15 K	887.1	37
333.15 K	883.6	30.09
338.15 K	880.2	24.76
343.15 K	876.8	20.59
348.15 K	873.4	17.3
353.15 K	869.9	14.66
358.15 K	866.5	12.53
363.15 K	863.1	10.78

CCCCCCCCCCCCCC[P+](CCCCCC)(CCCCCC)CCCCCC.O=S(=O)([N-]S(=O)(=O)C(F)(F)F)C(F)(F)F + O
[1], x2 = 0.088
Settings	mass density [kg/m3]	viscosity [mPa·s]
298.15 K	1066.1	300.01
303.15 K	1062.4	224.6
308.15 K	1058.7	170.8
313.15 K	1055	132.06
318.15 K	1051.4	103.5
323.15 K	1047.7	82.08
328.15 K	1044	65.75
333.15 K	1040.4	53.41
338.15 K	1036.7	44.23
343.15 K	1033.1	37.14
348.15 K	1029.6	31.46
353.15 K	1026	26.9
358.15 K	1022.4	23.17
363.15 K	1018.8	20.09

CCCCCCCCCCCCCC[P+](CCCCCC)(CCCCCC)CCCCCC.N#C[N-]C#N [tetradecyl(trihexyl)phosphonium dicyanamide] + O
[1], x2 = 0.496
Settings	mass density [kg/m3]	viscosity [mPa·s]
298.15 K	900.7	190.83
303.15 K	897.6	145.77
308.15 K	894.7	113.3
313.15 K	891.7	89.4
318.15 K	888.7	71.54
323.15 K	885.7	57.96
328.15 K	882.7	47.54
333.15 K	879.8	39.43
338.15 K	876.8	33.03
343.15 K	873.8	27.94
348.15 K	870.9	23.84
353.15 K	867.9	20.52
358.15 K	865	17.78
363.15 K	862	15.51

CCCCCCCCCCCCCC[P+](CCCCCC)(CCCCCC)CCCCCC.[Br-] [tetradecyltrihexylphosphonium bromide] + O
[1], x2 = 0.68
Settings	mass density [kg/m3]	viscosity [mPa·s]
298.15 K	957	238.84
303.15 K	953.6	180.54
308.15 K	950.3	138.77
313.15 K	946.9	108.27
318.15 K	943.6	85.71
323.15 K	940.2	68.71
328.15 K	936.9	55.74
333.15 K	933.5	45.71
338.15 K	930.2	37.91
343.15 K	926.8	31.74
348.15 K	923.5	26.82
353.15 K	920.1	22.85
358.15 K	916.7	19.62
363.15 K	913.4	16.94

CCCCCCCCCCCCCC[P+](CCCCCC)(CCCCCC)CCCCCC.[Cl-] [trihexyl(tetradecyl)phosphonium chloride]
[2]
Settings	mass density [kg/m3]	viscosity [mPa·s]
278.15 K	901.6	15339
283.15 K	898.6	9447.7
288.15 K	895.7	6088.5
293.15 K	892.8	4030.4
298.15 K	889.9	2729.1
303.15 K	887	1890.3
308.15 K	884	1336.4
313.15 K	881.1	962.5
318.15 K	878.2	705.75
323.15 K	875.3	525.98
328.15 K	872.3	398.19
333.15 K	869.5	305.73
338.15 K	866.6	237.78
343.15 K	863.7	187.39
348.15 K	860.8	149.21
353.15 K	858	120.11
358.15 K	855.1	97.66
363.15 K	852.3	80.17
